Reference: PMC5679017 (Journal of medicinal chemistry, 2016)

Columns and labels:
mice [1] = settings: 2 nmol dose; 3, 4, 5, 6, 16 and 24 hours after administration; cited from earlier work
melanocortin receptors = settings: cited from earlier work
mice [2] = assay: Cannula placement validation with hPYY, food intake; assay type: in vivo, mouse; settings: 2.5 μg human PYY3-36, validated cannulated mice (saline: 0.42 ±0.07 g)

Compound | food intake after ICV administration (previous study) (mice [1]) | binding affinity at the melanocortin receptors (reported) (melanocortin receptors) | food eaten four hours after administration (mice [2]) [g]
CC(=O)N[C@@H](Cc1c[nH]cn1)C(=O)N[C@H](Cc1ccccc1)C(=O)N[C@@H](CCCNC(=N)N)C(=O)N[C@@H](Cc1c[nH]c2ccccc12)C(N)=O [Compound 1, Ac-His-DPhe-Arg-Trp-NH2] | decrease food intake | high nanomolar to low micromolar | 
hPYY: human PYY3-36 (Bachem) used to verify cannula placement |  |  | 1.79 ± 0.13
